# Data taken from patent US8217053B2, “Camptothecin derivatives with antitumor activity” (Indena S.p.A., priority 2006, dated 2012).
# What was measured:
# lung tumor model = assay: In vivo comparison on a lung tumor model; conditions: dose 50 mg/kg/inj.
# Excerpt: Compound thio-SN38 (IDN6156) was transformed into thio-CPT11 (thio-Irinotecan) according to procedures for the conversion of SN38 to CPT11 (Irinotecan) reported in the literature. The resulting compound thio-irinotecan was compared in vivo with close non-sulforated analogue in clinical use (CPT11) on a lung tumor model highly sensitive to the standard references.
# [1] = target: T1, human recombinant enzyme (full length top1) (Homo sapiens, UniProt P11387); assay: Topoisomerase-I-dependent DNA rupture assay (DNA damage persistence); format: biochemical; conditions: 0.6 M NaCl added after 30 min incubation with 10 μM of the drug
# T1 construct: the human recombinant enzyme (full length top1)
# T1 sequence (P11387 1-765): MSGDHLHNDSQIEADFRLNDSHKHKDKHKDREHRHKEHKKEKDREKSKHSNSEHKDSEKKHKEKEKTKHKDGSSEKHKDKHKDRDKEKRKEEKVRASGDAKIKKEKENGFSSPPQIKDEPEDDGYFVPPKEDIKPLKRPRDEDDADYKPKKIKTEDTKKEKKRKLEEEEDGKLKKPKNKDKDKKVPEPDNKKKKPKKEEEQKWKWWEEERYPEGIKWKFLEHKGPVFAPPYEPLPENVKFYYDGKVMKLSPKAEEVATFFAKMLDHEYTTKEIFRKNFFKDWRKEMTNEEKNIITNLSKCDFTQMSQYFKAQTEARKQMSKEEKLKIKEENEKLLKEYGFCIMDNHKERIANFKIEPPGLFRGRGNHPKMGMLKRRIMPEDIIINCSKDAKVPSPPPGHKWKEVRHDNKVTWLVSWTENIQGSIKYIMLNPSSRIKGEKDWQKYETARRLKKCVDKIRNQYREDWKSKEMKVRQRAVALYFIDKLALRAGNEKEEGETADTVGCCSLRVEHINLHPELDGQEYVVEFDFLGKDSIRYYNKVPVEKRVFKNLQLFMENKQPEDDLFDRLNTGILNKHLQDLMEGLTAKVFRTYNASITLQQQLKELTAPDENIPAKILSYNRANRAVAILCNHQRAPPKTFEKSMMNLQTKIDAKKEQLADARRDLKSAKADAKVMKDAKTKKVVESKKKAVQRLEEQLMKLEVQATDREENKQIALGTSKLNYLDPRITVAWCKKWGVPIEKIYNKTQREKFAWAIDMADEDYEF
# [2] = system: NCI-H460 cell line (NSCL cancer); assay: Cell growth inhibition assay (cytotoxicity); format: cell-based, human; conditions: counted 72 hours after exposure, 1 or 72 hr drug exposure; for IC50: Homo sapiens, NCI-H460, read-out: NCI-H460 IC50 (μg/mL) Cell count, H460 human large cell lung tumor cells; for NCI-H460 IC50 (μg/mL) Cell count: H460 human large cell lung tumor cells
# Procedure: The compounds of the invention were tested in a cytotoxicity assay on a wide spectrum of tumour cells. By way of example, the cytotoxicity data on the NCI-H460 cell line (NSCL cancer) concerning two compounds of formula (I) are reported, using camptothecin and the drugs Topotecan and SN-38 as references:
# H460 Cells from human large cell lung tumor were cultured in RPMI-1640 medium containing 10% foetal calf serum. Cell sensitivity was determined by cell growth inhibition assay after 1 or 72 hr drug exposure. The cells in logarithmic growth were collected and seeded in duplicate in 6-wells plates. […] IC50 is defined as the concentration inhibiting by 50% cell growth compared with untreated controls growth.
SMILES,Max BWL % (lung tumor model) [%],TWI % (lung tumor model) [%],Tox/Tot (lung tumor model),LCK (0.5 g) (lung tumor model; 0.5 g),Persistence of DNA damage (%) ([1]; time 0 min),Persistence of DNA damage (%) ([1]; time 1 min),Persistence of DNA damage (%) ([1]; time 5 min),Persistence of DNA damage (%) ([1]; time 10 min),IC50 [2] [µg/mL],NCI-H460 IC50 (μg/mL) Cell count [2] [µg/mL]
CCc1c2c(nc3ccc(OC(=O)N4CCC(N5CCCCC5)CC4)cc13)-c1cc3c(c(=O)n1C2)COC(=O)[C@]3(O)CC [CPT 11],15,91,0/5,1.8,,,,,,
CC[C@@]1(O)C(=O)OCc2c1cc1n(c2=O)Cc2cc3ccccc3nc2-1 [Camptothecin],,,,,100,58,23,20,,
"CC[C@@]1(O)C(=O)OCc2c1cc1n(c2=S)Cc2cc3ccccc3nc2-1 [IDN 6070, Thio-camptothecin]",,,,,100,33,10,10,0.05 ± 0.021,
CC[C@@]1(O)C(=O)OCc2c1cc1n(c2=S)C(N=[N+]=[N-])c2cc3ccccc3nc2-1 (some centres unmarked) [IDN 6092],,,,,100,35,18,15,,0.3 ± 0.07
CC[C@@]1(O)C(=O)OCc2c1cc1n(c2=S)C(N=[N+]=[N-])c2cc3ccccc3nc2-1 (some centres unmarked) [IDN 6093],,,,,,,,,,0.72 ± 0.2
"CCc1c2c(nc3ccc(O)cc13)-c1cc3c(c(=S)n1C2)COC(=O)[C@]3(O)CC [IDN 6156, ThioSN-38]",,,,,100,100,80,60,0.0095 ± 0.0007,
"CC[C@@]1(O)C(=O)OCc2c1cc1n(c2=S)Cc2cc3c(CN(C)C)c(O)ccc3nc2-1 [IDN 6180, Thio-Topotecan]",,,,,,,,,0.115 ± 0.021,
"CC[C@@]1(O)C(=O)OCc2c1cc1n(c2=S)Cc2cc3cc(O)ccc3nc2-1 [IDN 6181, 10-hydroxy-Thio-Camptothecin]",,,,,100,88,50,22,0.035 ± 0.011,
"CCc1c2c(nc3ccc(O)cc13)-c1cc3c(c(=O)n1C2)COC(=O)[C@]3(O)CC [SN38, 10-hydroxy-7-ethylcamptothecin, reference compound]",,,,,100,60,33,28,,
"CC[C@@]1(O)C(=O)OCc2c1cc1n(c2=O)Cc2cc3c(CN(C)C)c(O)ccc3nc2-1 [Topotecan, reference compound]",,,,,100,65,20,10,,
